Data published in paper PMC11354720, “Assessing the Efficacy of Protease Inactivation for the Preservation of Bioactive Amphibian Skin Peptides” (International Journal of Molecular Sciences, 2024).
Read-outs that look alike come from different tables or passages of the source. Where a SMILES comes first, the peptide text is derived from it. Bridges are numbered along the chain shown (N, C = ends). Where no end group is shown, it is not given here.

System: proteases in Pelophylax esculentus skin secretion
Format: in vitro ADME
Settings: for Proteoforms, %: sum of all proteolytic forms; for Proteoforms, % / Intact, % / Oxidized, %: LC-HRMS; for Intact, %: one frog per sample; for Efficiency of the reagent in deactivating proteases in amphibian skin secretions: comparison of HCl 1%, CH3OH, HCOOH 1%, PMSF 0.1 and 1.0 mM by preservation of nine intact peptides; for Oxidized, %: Met oxidized to methionine sulfoxide
Description: The inhibitory capacity of methanol and hydrochloric and formic acids, as well as PMSF at the minimum and maximum concentrations traditionally used in proteomics (0.1–1.0 mM), was compared via mass spectrometric monitoring of intact and proteolytic forms of nine peptides in five samples of Pelophylax esculentus secretions (samples 1–5).
Table 2 presents quantitative data for each of the nine peptides in Table 1, showing the percentage ratio of the intact (original) form of the peptide, the oxidized form (in the presence of methionine in the sequence), and the resulting proteolytic forms: products of the action of the remaining non-deactivated proteases. The full list of the detected proteolytic forms is included into the supporting material. The presence of one or another proteolytic form for each peptide in each of the five samples was determined by observing the coincidence of their exact experimental mass with the calculated one (within 0.5 ppm according to the mass spectra), as well as the coincidence of their sequences (tandem mass spectra data).
When calculating the data in Table 2, the total amount of intensities of all its formed forms in the mass spectra was taken as 100% for each peptide. To calculate the content in each of the samples of the intact, oxidized (if any), or proteolytic form of each of the nine peptides, the sum of the intensities of the chromatographic peaks of its multicharged ions, exactly corresponding to the values of the polyprotonated molecules of each of the forms, was used. The line “Proteoforms, %” took into account the sum of all proteolytic forms of a particular peptide for each of the five samples. The values of the intensities of each of the forms (intact, oxidized, and proteolytic) obtained in this way were summed up and, in relation to their resulting sum, the percentage content of each of the three forms in Table 2 was calculated for each of the five samples with different reagents.
The skin secretions of five sexually mature female specimens of the same size of Pelophylax esculentus, caught within the Moscow city limits, were obtained via mild electro-stimulation of the skin glands using a laboratory electro-stimulator [15, 51]. The “milking” parameters were as follows: signal frequency 50 Hz, pulse duration 3 ms, voltage 12 V, total stimulation time 40 s. The secretion was washed off with deionized water into separate containers, to which the following reagents were immediately added individually: —HCl to final concentration 1% (sample 1); —CH3OH (sample 2); —HCOOH to final concentration 1% (sample 3); —0.1 mM PMSF (sample 4 in DMSO); —1.0 mM PMSF (sample 5 in DMSO). All samples were centrifuged for 15 min at 3 000 rpm, filtered through removable membrane filters (PTFE 0.45 μm), and lyophilized. The storage temperature was −26 °C. All five individuals were immediately returned to their place of capture after the procedure.
Mass spectra were obtained on an Orbitrap ID-X high-resolution mass spectrometer (Thermo Scientific, Waltham, MA, USA) coupled to an LC-30 Nexera liquid chromatograph (Shimadzu, Kyoto, Japan) in LC-HRMS mode. An HPLC system consisted of two LC-30AD chromatographic pumps, a DGU-5A vacuum degasser, a SIL-30AC autosampler, an STO-20A column thermostat, and a CBM-20A system controller. The components of the secretions were separated on an XDB-C18 column (Agilent, Santa Clara, CA, USA) with a length of 100 mm and phase particle size of 1.8 μm. Gradient chromatography was performed using the following solutions: A—0.1% formic acid solution in deionized water (Milli-Q, Millipore, Molsheim, France); B—0.1% formic acid solution in acetonitrile containing 2% deionized water. All lyophilized samples were dissolved in phase B prior to the analysis. Injection volume was set to 0.1 µL. […]

[1] = sample 1: HCl final concentration 1%, all forms = 100%
[2] = sample 1: aqueous P. esculentus skin secretion, HCl added to final concentration 1%, sum of intensities of all forms of the peptide = 100%
[3] = sample 2: CH3OH, all forms = 100%
[4] = sample 2: aqueous P. esculentus skin secretion with CH3OH added, all forms = 100%
[5] = sample 3: HCOOH final concentration 1%, all forms = 100%
[6] = sample 3: aqueous P. esculentus skin secretion, HCOOH added to final concentration 1%, all forms = 100%
[7] = sample 4: aqueous P. esculentus skin secretion, PMSF 0.1 mM (in DMSO), all forms = 100%
[8] = sample 5: PMSF 1.0 mM (in DMSO), all forms = 100%
[9] = sample 5: aqueous P. esculentus skin secretion, PMSF 1.0 mM (in DMSO), all forms = 100%
[10] = sample 4: PMSF 0.1 mM (in DMSO), all forms = 100%

Row | Compound | Proteoforms, % [1] | Intact, % [2] | Proteoforms, % [3] | Intact, % [4] | Proteoforms, % [5] | Intact, % [6] | Intact, % [7] | Proteoforms, % [8] | Intact, % [9] | Efficiency of the reagent in deactivating proteases in amphibian skin secretions | Proteoforms, % [10] | Oxidized, % [1] | Oxidized, % [10]
1 | CC[C@H](C)[C@H](NC(=O)[C@@H](N)C(C)C)C(=O)N1CCC[C@H]1C(=O)N[C@@H](Cc1ccccc1)C(=O)N[C@H](C(=O)N[C@@H](C)C(=O)N[C@@H](CO)C(=O)N[C@H](C(=O)N[C@@H](C)C(=O)N[C@@H](C)C(=O)N[C@@H](CCC(=O)O)C(=O)N[C@@H](CCSC)C(=O)N[C@@H](CCSC)C(=O)N[C@@H](CCC(N)=O)C(=O)N[C@@H](Cc1c[nH]cn1)C(=O)N[C@H](C(=O)N[C@@H](Cc1ccc(O)cc1)C(=O)N[C@H]1CSSC[C@@H](C(=O)O)NC(=O)[C@H](CCCNC(=N)N)NC(=O)[C@H](CCCNC(=N)N)NC(=O)[C@H](CO)NC(=O)[C@H](C)NC(=O)[C@H](C)NC1=O)C(C)C)C(C)C)C(C)C [Brev 1Ra, Brevinin 1Ra] (H-VIPFVASVAAEMMQHVYCAASRRC-OH; disulfide 18-24) | 0.75% | 93.51% | 0.60% | 98.27% | 0.30% | 99.51% | 77.80% | 0.53% | 99.47% |  |  |  | 
2 | CO [Methanol, reference compound] |  |  |  |  |  |  |  |  |  | most efficient |  |  | 
3 | O=S(=O)(F)Cc1ccccc1 [PMSF, phenylmethylsulfonyl fluoride, reference compound] |  |  |  |  |  |  |  |  |  | ineffective |  |  | 
4 | CC[C@H](C)[C@H](NC(=O)[C@H](CC(N)=O)NC(=O)[C@@H](NC(=O)[C@H](C)N)C(C)C)C(=O)N1CCC[C@H]1C(=O)N[C@@H](Cc1ccccc1)C(=O)N[C@@H](CCCCN)C(=O)N[C@H](C(=O)N[C@@H](CCCCN)C(=O)N[C@@H](Cc1ccccc1)C(=O)N[C@@H](CCCNC(=N)N)C(=O)N[C@H]1CSSC[C@@H](C(=O)O)NC(=O)[C@H](Cc2ccccc2)NC(=O)[C@H](C)NC(=O)[C@H](C)NC(=O)[C@H](CCCCN)NC1=O)C(C)C [Ranat 2R, Ranatuerin 2R] (H-AVNIPFKVKFRCKAAFC-OH; disulfide 12-17) | 14.79% | 85.21% | proteolytic fragments were not recorded | 100% | 34.99% | 65.01% |  | proteolytic fragments were not recorded | 100% |  | proteolytic fragments were not recorded |  | 
5 | FFPAFLKVAAKVVPSXXCSITKKC-OH (disulfide) [Brev 1LE, Brevinin 1LE, natural disulfide skin peptide of Pelophylax esculentus, brevinin 1 family, 24 aa] | not a single proteolytic fragment was formed | 100% | not a single proteolytic fragment was formed | 100% | 1.63% | 98.37% | 7.27% | 89.74% | 10.26% |  | 92.73% |  | 
6 | GIFSKLGRKKIKNLLISGLKNVGKEVGMDVVRTGIDIAGCKIKGEC (disulfide 40-46) [Escul 1, Esculentin 1] | 51.77% | 38.61% | 20.01% | 79.99% | 16.99% | 72.22% | 3.32% | 91.90% | 8.10% |  | 94.40% |  | 
7 | GXFSKXAGKKXKNLXISGXKSVGKEVGMDVVRTGIDIAGCKIKGEC-OH (disulfide) [Escul 1R, Esculentin 1R, natural disulfide skin peptide of Pelophylax esculentus, esculentin 1 family, 46 aa] | 27.69% | 64.86% | 22.15% | 77.85% | 15.59% | 84.41% | 2.42% | 99.26% | 0.74% |  | 97.33% | 7.45% | 0.25%
8 | GXLDSLKNFAKDAAGILLKKASCKLSGQC-OH (disulfide) [Brev 2Ra, Brevinin 2Ra, natural disulfide skin peptide of Pelophylax esculentus, brevinin 2 family, 29 aa] | 1.02% | 98.98% | did not degrade | 100% | 1.30% | 98.70% | 11.80% | 14.01% | 85.99% |  | 88.21% |  | 
9 | GXLDSLKNLAKNAAQILLNKASCKLSGQC-OH (disulfide) [Brev 2Rd, Brevinin 2Rd, natural disulfide skin peptide of Pelophylax esculentus, brevinin 2 family, 29 aa] | 0.39% | 99.61% | did not degrade | 100% | 2.23% | 97.77% | 1.55% | 79.16% | 20.84% |  | 98.45% |  | 
10 | GXLSTLKNVAKTAGKGALQSLLNAASCKLSGQC-OH (disulfide) [Brev 2L, Brevinin 2L, natural disulfide skin peptide of Pelophylax esculentus, brevinin 2 family, 33 aa] | 1.21% | 98.79% | 4.66% | 95.34% | 4.74% | 95.26% | 0.36% | 80.51% | 19.49% |  | 99.64% |  | 
11 | GXWNTXKATGKSA ASNVAVTLLDKAKCK(LV)GEC-OH (disulfide) [Brev 2La, Brevinin 2La, natural disulfide skin peptide of Pelophylax esculentus, brevinin 2 family, 33 aa] | 69.02% | 30.98% | not observed at all | 100% | 4.98% | 95.02% |  | not observed at all |  |  |  |  | 
